Assays:
Assay type in all cases: cell-based
human TRPV1 [1] = biological target: T1, human TRPV1 (Homo sapiens, UniProt Q8NER1); experiment: Pre-Incubation Test (FLIPR intracellular calcium, HEK-293 cells, capsaicin activator); settings: test compound final 100 μM
T1 construct: expressed in transfected cells; host or cells: HEK-293
Protocol: (§1) The Pre-Incubation Test and Direct Addition Test Methods, as defined herein, can be conducted on either TRPV1 or TRPA1 receptors.
(§2) Pre-Incubation Test Method: First, the intracellular calcium ion (Ca^+2) levels in TRPV1 and TRPA1 receptors is measured. HEK-293 (human embryonic kidney) cells stably transfected with human TRPV1 or TRPA1 are grown in 15 ml growth medium [high glucose DMEM (Dulbecco's Modification of Eagle's Medium) supplemented with 10% FBS (fetal bovine serum), 100 μg/ml Penicillin/streptomycin, 100 μg/ml G418] in a 75 Cm^2 flask for 3 days at 33° C. in a mammalian cell culture incubator set at 5% CO2. Cells are detached with addition of 10 ml of PBS (phosphate buffered saline) by hand shaking gently. […] Fluo-4 is a fluorescent dye used for quantifying cellular Ca^2+ concentrations in the 100 nM to 1 microM range. […]
(§3) The pellet cells are re-suspended in 10 ml assay buffer and 90 μl aliquots (50,000 cells) per well delivered to a 96-well assay plate containing 10 μl of test compounds (1 mM in assay buffer, final concentration 100 μM) or buffer control and incubated at room temperature for 30 minutes. After 30 minutes, the plate is placed into a fluorometric imaging plate reader (FLIPR^384 from Molecular Devices) and basal fluorescence recorded (excitation wave length 488 nm and emission wave length 510 nm). […]

human TRPA1 [2] = biological target: T2, human TRPA1 (Homo sapiens, UniProt O75762); experiment: Pre-Incubation Test (FLIPR intracellular calcium, HEK-293 cells, AITC activator); settings: test compound final 100 μM
T2 construct: expressed in transfected cells; host or cells: HEK-293
Protocol: as §1, §2, §3

human TRPA1 [3] = biological target: T2, human TRPA1; experiment: Direct Addition Test (FLIPR intracellular calcium, HEK-293 cells); settings: compound final 100 μM
Protocol: as §1
(§4) Pre-Incubation Test Method: First, the intracellular calcium ion (Ca^+2) levels in TRPV1 and TRPA1 receptors is measured. HEK-293 (human embryonic kidney) cells stably transfected with human TRPV1 or TRPA1 are grown in 15 ml growth medium [high glucose DMEM (Dulbecco's Modification of Eagle's Medium) supplemented with 10% FBS (fetal bovine serum), 100 μg/ml Penicillin/streptomycin, 100 μg/ml G418] in a 75 Cm^2 flask for 3 days at 33° C. in a mammalian cell culture incubator set at 5% CO2. Cells are detached with addition of 10 ml of PBS (phosphate buffered saline) by hand shaking gently. Cells are transferred to a 50 ml tube and centrifuged at 850 rpm for 3 minutes to remove PBS. After centrifugation, a pellet of cells is formed in the bottom of the tube separating them from the supernatant solution. The supernatant is discarded and the cell pellet is suspended in 1 ml of fresh growth medium to which 5 μl (12.5 μg) of Fluo-4 AM (Molecular Probes, Inc.) calcium indicator is added and incubated for 30 min with gentle shaking on a plate shaker. Fluo-4 is a fluorescent dye used for quantifying cellular Ca^2+ concentrations in the 100 nM to 1 microM range. At the end of the 30 minutes, 45 ml of assay buffer [1×HBSS (Hank's Balanced Salt Solution), 20 mM HEPES (4-(2-Hydroxyethyl)-1-piperazineethanesulfonic acid)] is added to wash cells and the resulting combination is then centrifuged at 850 rpm for 3 minutes to remove excess buffer and Fluo-4 AM calcium indicator.
(§5) The pellet cells are re-suspended in 10 ml assay buffer and 90 μl aliquots (50,000 cells) per well delivered to a 96-well assay plate containing 10 μl of test compounds (1 mM in assay buffer, final concentration 100 μM) or buffer control and incubated at room temperature for 30 minutes. After 30 minutes, the plate is placed into a fluorometric imaging plate reader (FLIPR^384 from Molecular Devices) and basal fluorescence recorded (excitation wave length 488 nm and emission wave length 510 nm). […] Then 20 μl of the activators [1.8 μM Capsaicin (final concentration 300 nM) for TRPV1 or 300 μM AITC (final concentration 50 μM) for TRPA1 is added by FLIPR automatically and fluorescence recorded immediately.
(§6) Direct Addition Test Method (for determining the direct effect of test compounds on TRPV1 and TRPA1): All procedures are same as the pre-incubation test except 10 μl assay buffer instead of 10 μl test compounds in the 96-well assay plates. The fluorescence is measured immediately after addition of 20 μl of 600 μM each compound (final concentration 100 μM). […] The percentage of up-regulation or down-regulation is calculated based on the fluorescence measurement.

human TRPV1 [4] = biological target: T1, human TRPV1; experiment: as above; settings: compound final 100 μM
Protocol: as §1, §4, §5, §6

[5] = calculated from fluorescence relative to activator

T1 sequence (Q8NER1 whole entry): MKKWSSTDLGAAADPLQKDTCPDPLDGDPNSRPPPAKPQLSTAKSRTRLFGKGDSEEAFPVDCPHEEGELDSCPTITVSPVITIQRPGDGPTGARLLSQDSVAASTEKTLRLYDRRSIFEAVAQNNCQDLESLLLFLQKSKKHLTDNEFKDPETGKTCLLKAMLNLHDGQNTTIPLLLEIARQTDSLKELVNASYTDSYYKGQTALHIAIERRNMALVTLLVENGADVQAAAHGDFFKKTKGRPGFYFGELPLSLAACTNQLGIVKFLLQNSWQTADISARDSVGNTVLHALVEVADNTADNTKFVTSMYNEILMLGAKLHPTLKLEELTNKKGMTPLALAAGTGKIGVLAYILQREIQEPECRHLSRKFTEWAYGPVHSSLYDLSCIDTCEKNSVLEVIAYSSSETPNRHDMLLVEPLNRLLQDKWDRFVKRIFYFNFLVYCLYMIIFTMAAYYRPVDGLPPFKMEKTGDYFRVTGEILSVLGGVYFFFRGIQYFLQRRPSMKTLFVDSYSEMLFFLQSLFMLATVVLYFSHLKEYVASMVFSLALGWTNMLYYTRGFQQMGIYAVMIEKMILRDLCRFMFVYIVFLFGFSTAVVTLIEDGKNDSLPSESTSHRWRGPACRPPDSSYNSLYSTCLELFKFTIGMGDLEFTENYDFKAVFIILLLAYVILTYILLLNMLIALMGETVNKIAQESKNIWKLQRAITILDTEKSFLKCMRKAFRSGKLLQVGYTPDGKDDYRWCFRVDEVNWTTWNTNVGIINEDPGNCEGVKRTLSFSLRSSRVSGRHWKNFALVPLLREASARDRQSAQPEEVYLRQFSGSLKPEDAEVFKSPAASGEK
T2 sequence (O75762 whole entry): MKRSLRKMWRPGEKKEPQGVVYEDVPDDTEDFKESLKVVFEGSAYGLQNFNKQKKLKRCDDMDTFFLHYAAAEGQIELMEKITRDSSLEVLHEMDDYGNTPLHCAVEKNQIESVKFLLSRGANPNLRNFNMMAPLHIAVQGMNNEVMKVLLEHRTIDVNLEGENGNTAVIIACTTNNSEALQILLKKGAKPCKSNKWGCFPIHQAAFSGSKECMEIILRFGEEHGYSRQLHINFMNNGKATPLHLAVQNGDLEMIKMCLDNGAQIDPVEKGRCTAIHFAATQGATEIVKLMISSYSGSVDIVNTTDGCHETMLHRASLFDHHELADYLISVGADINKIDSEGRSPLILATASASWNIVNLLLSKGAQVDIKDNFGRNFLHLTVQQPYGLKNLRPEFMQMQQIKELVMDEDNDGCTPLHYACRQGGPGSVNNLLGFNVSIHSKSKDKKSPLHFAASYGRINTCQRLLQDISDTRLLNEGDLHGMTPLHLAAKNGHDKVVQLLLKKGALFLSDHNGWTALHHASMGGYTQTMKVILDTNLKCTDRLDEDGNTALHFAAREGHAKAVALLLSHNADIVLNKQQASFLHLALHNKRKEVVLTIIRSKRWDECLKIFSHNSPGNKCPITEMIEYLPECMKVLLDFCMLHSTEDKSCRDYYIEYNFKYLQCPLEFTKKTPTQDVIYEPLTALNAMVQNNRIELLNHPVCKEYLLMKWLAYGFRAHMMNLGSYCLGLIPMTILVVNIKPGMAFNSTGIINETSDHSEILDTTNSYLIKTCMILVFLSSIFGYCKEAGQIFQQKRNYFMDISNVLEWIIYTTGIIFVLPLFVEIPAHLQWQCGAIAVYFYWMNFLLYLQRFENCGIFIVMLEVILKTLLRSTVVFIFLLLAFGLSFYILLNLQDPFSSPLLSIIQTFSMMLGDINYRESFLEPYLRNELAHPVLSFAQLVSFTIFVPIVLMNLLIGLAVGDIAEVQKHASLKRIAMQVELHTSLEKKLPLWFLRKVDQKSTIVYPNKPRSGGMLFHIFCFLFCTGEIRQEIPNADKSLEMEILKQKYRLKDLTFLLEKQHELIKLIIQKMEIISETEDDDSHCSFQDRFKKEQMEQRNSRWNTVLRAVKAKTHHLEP

- Fluorescence value after adding Iso E Super (human TRPV1 [1]; 30 min at room temperature, then capsaicin final 300 nM): 2334.51 fluorescence units
- % Regulation (human TRPV1 [1]; [5]): 21.82%
- Fluorescence value after adding Iso E Super (human TRPA1 [2]; 30 min at room temperature, then AITC final 50 μM): −57.37 fluorescence units
- % Regulation (human TRPA1 [2]; [5]): −0.40%
- % Regulation (human TRPA1 [3]; [5]): 11.53%
- Fluorescence value after adding Iso E Super (human TRPA1 [3]; measured immediately): 1386.593 fluorescence units
- % Regulation (human TRPV1 [4]; [5]): −0.71%
- Fluorescence value after adding Iso E Super (human TRPV1 [4]; measured immediately): −82.62 fluorescence units
Compound: CC(=O)C1(C)CC2=C(CCCC2(C)C)CC1C (centres unmarked) [Iso E Super, 1-(1,2,3,4,5,6,7,8-octahydro-2,3,8,8-tetramethyl-2naphthalenyl)-ethan-1-one]
